The source of these data is US8524738B2, “Quinolinones and quinoxalinones as antibacterial composition” (Toyama Chemical Co., Ltd., priority 2005, dated 2013).

Data set [1] has as its system Staphylococcus aureus (S. aureus FDA209P). In words: Sensitivity Test 1: antibacterial activity (MIC) by micro-dilution method. The class given is cell-based. Here is the method: (§1) Test compounds were initially dissolved in dimethylsulfoxide. Antibacterial activities (MICs) of the same compounds were determined by the micro-dilution method as recommended by the Japanese Society of Chemotherapy.
(§2) Staphylococcus aureus (S. aureus FDA209P) was used as the test organism. The bacterial cells were grown overnight at 35° C. on Mueller-Hinton agar (MHA) plates. The bacterial cells were then suspended in sterile saline and adjusted to the turbidity of a 0.5 McFarland standard. The inoculum was prepared by 10-fold dilution of this suspension. Approximately 0.005 mL aliquots of the inoculum prepared above were subsequently inoculated into Cation-adjusted Mueller-Hinton broth (CAMHB, 100 μL/well) including the test compounds for overnight incubation at 35° C.

A further data set has as its system S. aureus Smith. In words: Infection Test: mice infected intraperitoneally with S. aureus Smith. The class given is in vivo. To be noted: ICR mice, 5 per group; S. aureus Smith i.p.; 10 mg/kg subcutaneously once at 1 hour after infection; survivors recorded 3 days after infection. Here is the method: S. aureus Smith which was grown overnight at 37° C. on Mueller-Hinton agar (MHA) plates were suspended to give a final concentration of 10^9 CFU/mL. The inoculum was prepared by diluting this suspension 10-fold in 1/15 mol/L phosphate buffer (pH 7) containing 5.6% mucin. ICR mice (4 to 4.5 weeks of age, male, 5 mice per group) were intraperitoneally administered with the inoculum (approximately 2×10^7 CFU per mice) to induce infection.
After dissolving the test compounds in 0.1 mol/L hydrochloric acid, 20% 2-hydroxypropyl-β-cyclodextrin (HP-β-CD) or a mixture of 20% HP-β-CD and 0.1 mol/L hydrochloric acid at a proportion of 1:1 was added to give a final concentration of 1 mg/mL. Each of the test compound solutions (10 mg/kg) was subcutaneously administered once to a group of mice at 1 hour after infection. The control group was administered with 10% HP-β-CD. The mice were observed daily and the number of surviving mice in each group was recorded 3 days after infection.

A further data set concerns Vero cells. In words: Cytotoxicity Test (XTT) on Vero cells. The class given is cell-based. To be noted: 51.2 μg/mL of test compound, 3 days at 37° C., XTT absorbance ratio of treated to untreated well. The protocol: Test compounds were initially dissolved in dimethylsulfoxide. […]. After incubation, absorbance was read at 450 nm and 655 nm in a spectrophotometric microplate reader. The values were expressed as the ratio between the value for the well treated with 51.2 μg/mL of each test compound and the value for the well untreated with the test compound (T/C).

Data set [2] deals with Methicillin-resistant Staphylococcus aureus (S. aureus F-3095). In words: Sensitivity Test 2: antibacterial activity (MIC) by micro-dilution method. The class given is cell-based. The protocol:
as §1, §2
Methicillin-resistant Staphylococcus aureus (S. aureus F-3095) was used as the test organism. Antibacterial activities (MICs) were determined in the same manner as in Test Example 1.

[3] abbreviates: S. aureus FDA209P, CAMHB, overnight incubation at 35° C., lowest concentration with virtually no growth, read-out: MIC.
Setting [4] is: Methicillin-resistant S. aureus F-3095, same manner as in Test Example 1, read-out: MIC.

Converted amounts (≈) assume the structure as drawn. Counter-ions that a name gives are not always drawn. Like-named read-outs stand apart in the source and are kept apart here.

With `CNC(=O)c1cc(=O)n(CCN2CCC(NCc3cc(-c4cccs4)on3)CC2)c2cc(OC)ccc12` [Example 341, 7-methoxy-N-methyl-2-oxo-1-(2-(4-((5-(thiophen-2-yl)isoxazol-3-yl)methylamino)piperidin-1-yl)ethyl)-1,2-dihydroquinoline-4-carboxamide hydrochloride], the MIC in data set [1] (FDA209P) was 0.0313 µg/mL; in data set [2] it was 0.0625 µg/mL. The “Number of surviving mice” value in the data set on S. aureus Smith stood at 5. Besides, the T/C in the data set with Vero cells is reported as over 50%.

`COc1ccc2ncc(=O)n(CCN3CCC(NCc4ccc5c(c4)NC(=O)CO5)CC3)c2c1` [Example 90, 6-(((1-(2-(7-methoxy-2-oxoquinoxaline-1-(2H)-yl)ethyl)piperidin-4-yl)amino)methyl)-2H-1,4-benzooxazine-3(4H)-one]: the values for the MIC in data set [1] (setting [3]) and in data set [2] (setting [4]) were 0.0313 µg/mL (≈ 0.0675 µM) and 0.0625 µg/mL (≈ 0.135 µM), respectively. For the same compound, the “Number of surviving mice” value in the data set with S. aureus Smith is on record as 5. Further, the T/C in the data set with Vero cells was over 50%.

Consider `Nc1cccc2c1ccc(=O)n2CCN1CCC(NCc2ccc3c(c2)OCCO3)CC1` [Example 263, 1-(2-(4-((2,3-dihydro-1,4-benzodioxin-6-ylmethyl)amino)piperidin-1-yl)ethyl)-5-aminoquinolin-2(1H)-one hydrochloride], for which the minimal inhibitory concentration (MIC) in data set [1] (FDA209P) turned out to be 0.125 µg/mL; in data set [2] it was 0.25 µg/mL. Further, the “Number of surviving mice” value with S. aureus Smith came to 5. Besides, in the data set on Vero cells, the T/C is on record as over 50%.

For `CNC(=O)c1cc(=O)n(CCN2CCC(NCc3ccc4c(c3)OCCO4)CC2)c2cc(OC)ccc12` [Example 25, 1-(2-(4-((2,3-dihydro-1,4-benzodioxin-6-ylmethyl)amino)piperidin-1-yl)ethyl)-7-methoxy-N-methyl-2-oxo-1,2-dihydroquinoline-4-carboxamide], the minimum inhibitory concentration (MIC) turned out to be 0.0625 µg/mL (≈ 0.123 µM) in data set [1] (setting [3]) and 0.125 µg/mL (≈ 0.247 µM) in data set [2] (setting [4]). For the same compound, in the data set with S. aureus Smith, the “Number of surviving mice” value stood at 5. In addition, the T/C in the data set on Vero cells was over 50%.

As for `O=C1CSc2ccc(CNC3CCN(CCn4c(=O)cnc5ccc(F)cc54)CC3)nc2N1` [Example 369, 7-fluoro-1-(2-(4-((3-oxo-3,4-dihydro-2H-pyrido[3,2-b][1,4]thiazin-6-yl)methylamino)piperidin-1-yl)ethyl)quinoxalin-2(1H)-one hydrochloride], the MIC in data set [1] (FDA209P) and in data set [2] was 0.0313 µg/mL each time. For the same compound, the “Number of surviving mice” value in the data set on S. aureus Smith was found to be 5. Moreover, the T/C with Vero cells is recorded as over 50%.

Turning to `O=c1cnc2ccc(F)cc2n1CCN1CCC(NCc2cc3c(cn2)OCCO3)CC1` [Example 352, 1-(2-(4-((2,3-dihydro-1,4-dioxino[2,3-c]pyridin-7-yl)methylamino)piperidin-1-yl)ethyl)-7-fluoroquinoxalin-2(1H)-one hydrochloride], the values for the MIC in data set [1] (FDA209P) and in data set [2] were 0.0156 µg/mL and 0.0313 µg/mL, respectively. In addition, the “Number of surviving mice” value in the data set with S. aureus Smith came to 5. Moreover, in the data set with Vero cells, the T/C is listed as over 50%.

`Cc1ccc(CNC2CCN(CCn3c(=O)cnc4ccc(F)cc43)CC2)cc1F` [Example 367, 1-(2-(4-((3-fluoro-4-methylbenzyl)amino)piperidin-1-yl)ethyl)-7-fluoroquinoxalin-2(1H)-one hydrochloride]: the minimum inhibitory concentration (MIC) in data set [1] (FDA209P) and in data set [2] was 0.0156 µg/mL throughout. The “Number of surviving mice” value in the data set with S. aureus Smith is listed as 5. Further, the T/C in the data set on Vero cells is over 50%.

As for `COCCNC(=O)c1cc(=O)n(CCN2CCC(NCc3ccc4c(c3)OCCO4)CC2)c2cc(OC)ccc12` [Example 141, 1-(2-(4-((2,3-dihydro-1,4-benzodioxin-6-ylmethyl)amino)piperidin-1-yl)ethyl)-7-methoxy-N-(2-methoxyethyl)-2-oxo-1,2-dihydroquinoline-4-carboxamide hydrochloride], the MIC in data set [1] (FDA209P) worked out at 0.125 µg/mL; in data set [2], 0.25 µg/mL. Also, the “Number of surviving mice” value in the data set with S. aureus Smith is 5. Also, in the data set with Vero cells, the T/C was over 50%.

In the case of `CNC(=O)c1cc(=O)n(CCN2CCC(NCc3ccc(C)c(F)c3)CC2)c2cc(OC)ccc12` [Example 340, 1-(2-(4-(3-fluoro-4-methylbenzylamino)piperidin-1-yl)ethyl)-7-methoxy-N-methyl-2-oxo-1,2-dihydroquinoline-4-carboxamide hydrochloride], the minimal inhibitory concentration (MIC) in data set [1] (FDA209P) came out at 0.0313 µg/mL; in data set [2] it was 0.0625 µg/mL. Moreover, the “Number of surviving mice” value in the data set with S. aureus Smith came out at 5. In addition, the T/C in the data set on Vero cells was over 50%.
